pIC50: −log10 of the molar value. Read-outs that look alike come from different tables or passages of the source.
Legend:
AHR [1] = target: T1, AHR (Homo sapiens, UniProt P35869); assay: In vitro assay 2: agonism in human cell line (transactivation assay); conditions: for pIC50: read-out: Assay 2: AHR-luc Hum Agonism IC50, no kynurenic acid, 20 hours, firefly luciferase; for IC50: Assay 2: AHR-luc Hum Agonism IC50 [M], no kynurenic acid, 20 hours, firefly luciferase
T1 sequence (P35869 11-848): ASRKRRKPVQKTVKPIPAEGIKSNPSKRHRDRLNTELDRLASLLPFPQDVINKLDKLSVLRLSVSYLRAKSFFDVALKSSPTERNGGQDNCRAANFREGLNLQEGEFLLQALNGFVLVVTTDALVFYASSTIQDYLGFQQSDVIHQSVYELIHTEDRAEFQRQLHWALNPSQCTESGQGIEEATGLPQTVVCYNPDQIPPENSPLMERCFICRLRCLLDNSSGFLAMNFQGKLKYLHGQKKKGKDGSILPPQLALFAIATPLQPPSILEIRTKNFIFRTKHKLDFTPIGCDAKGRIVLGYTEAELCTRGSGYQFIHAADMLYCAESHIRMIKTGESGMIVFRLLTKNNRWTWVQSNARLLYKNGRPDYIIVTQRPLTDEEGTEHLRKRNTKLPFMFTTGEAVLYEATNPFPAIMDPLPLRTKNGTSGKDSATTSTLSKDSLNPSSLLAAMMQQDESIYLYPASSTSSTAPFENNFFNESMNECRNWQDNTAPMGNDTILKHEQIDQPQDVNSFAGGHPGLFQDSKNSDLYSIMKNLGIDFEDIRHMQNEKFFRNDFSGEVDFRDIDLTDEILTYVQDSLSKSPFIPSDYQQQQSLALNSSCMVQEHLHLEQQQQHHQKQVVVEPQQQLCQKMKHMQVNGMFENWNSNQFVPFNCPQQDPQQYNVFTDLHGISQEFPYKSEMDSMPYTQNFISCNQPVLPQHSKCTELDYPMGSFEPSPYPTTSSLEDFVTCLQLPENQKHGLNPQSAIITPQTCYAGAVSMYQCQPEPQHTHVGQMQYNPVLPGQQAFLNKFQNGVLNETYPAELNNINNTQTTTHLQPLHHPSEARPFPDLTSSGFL

[2] = test system: AHR-regulated gene CYP1A1; assay: In vitro assay 3: AHR-regulated CYP1A1 expression in human cell line (U937, qPCR); conditions: for pIC50: read-out: Assay 3: Hum CYP1A1 Antagonism IC50, U937 cells, 200 μM KA, 6 hours, qPCR; for IC50: Homo sapiens, U-937, 6 h, read-out: Assay 3: Hum CYP1A1 Antagonism IC50 [M], U937 cells, 200 μM KA, 6 hours, qPCR
Description: In Vitro Assay 3: AHR-Regulated CYP1A1 Expression in Human Cell Line
To assess the AHR inhibitory activity of the substances described in this application, the ability thereof to antagonise ligand-induced AHR gene regulation in a dose-dependent manner was quantified. For this purpose, quantitative PCR analysis was used to determine expression of the AHR-regulated gene CYP1A1 in a human monocytic U937 cell line upon stimulation with 200 μM KA in the presence and absence of AHR inhibitor. U937 cells were sown at a concentration of 2×10^5 cells/well in 100 ul of growth medium (RPMI 1640, 20% FCS) in 96-well microtitre plates. CYP1A1 expression was induced with 200 μM KA (positive control) in the presence or absence of the substances for 6 hours. Human U937 cells were typically incubated with eight different concentrations of the substances (1 nM, 3 nM, 10 nM, 30 nM, 100 nM, 300 nM, 1 μM and 3 μM) and analyzed in duplicate on the same microtitre plate. After stimulation, cells were lysed with Nucleic Acid Lysis Solution (#4305895, Applied Biosystems) and RNA was isolated using the 6100 Nucleic Acid Preparation Station (Applied Biosystems) and reverse-transcribed to cDNA using SuperScript VILO cDNA synthesis kit (#11754-250, Invitrogen). Unstimulated cells were used as the negative control. Taqman probes for human CYP1A1 (Hs01054797_g1) and human HPRT (Hs02800695_m1) were used to analyze fold expression of CYP1A1 of HPRT. Quantitation was performed on a Taqman SDS7900HT.

AHR [3] = target: T1, AHR; assay: In vitro assay 1: antagonism in human cell line (transactivation assay, kynurenic acid prestimulated); conditions: Assay 1: AHR-luc Hum Antagonism IC50 [M], 150 μM kynurenic acid, 20 hours, firefly luciferase

Structure (SMILES)	pIC50 (AHR [1])	pIC50 [2]	IC50 (AHR [3]) [M]	IC50 [2] [M]	IC50 (AHR [1]) [M]
O=C(NC(CO)C1CCC1)c1cc(-c2ccc(Cl)cc2)nn(-c2cccc(F)c2)c1=O (single isomer, unassigned; (-)) [Example 211, (−)-6-(4-Chlorophenyl)-N-(1-cyclobutyl-2-hydroxyethyl)-2-(3-fluorophenyl)-3-oxo-2,3-dihydropyridazine-4-carboxamide]	< 4.70		1.66e-08	2.23e-08	
Cc1ccc(-c2cc(C(=O)NCC(O)C(C)C)c(=O)n(-c3cccc(F)c3)n2)cc1 (single isomer, unassigned; enantiomer 1) [Example 11, 2-(3-Fluorophenyl)-N-(2-hydroxy-3-methylbutyl)-6-(4-methylphenyl)-3-oxo-2,3-dihydropyridazine-4-carboxamide, enantiomer 1]			7.94e-08	1.71e-07	> 2e-05
Cc1ccc(-c2cc(C(=O)N[C@H](CO)C(C)C)c(=O)n(-c3cccc(F)c3)n2)cc1 [Example 2, 2-(3-Fluorophenyl)-N-[(2S)-1-hydroxy-3-methylbutan-2-yl]-6-(4-methylphenyl)-3-oxo-2,3-dihydropyridazine-4-carboxamide]			1.03e-08	1.36e-08	> 2e-05
CC(C)[C@@H](CO)NC(=O)c1cc(-c2ccc(Cl)cc2)nn(-c2cccc(F)c2)c1=O [Example 20, 6-(4-Chlorophenyl)-2-(3-fluorophenyl)-N-[(2S)-1-hydroxy-3-methylbutan-2-yl]-3-oxo-2,3-dihydropyridazine-4-carboxamide]			1.18e-08	1.22e-08	> 2e-05
O=C(NCC(O)C(F)(F)F)c1cc(-c2ccc(Cl)cc2)nn(-c2cccc(F)c2)c1=O (stereo not drawn) [Example 25, 6-(4-Chlorophenyl)-2-(3-fluorophenyl)-3-oxo-N-(3,3,3-trifluoro-2-hydroxypropyl)-2,3-dihydropyridazine-4-carboxamide]			3.75e-08	5.86e-08	> 2e-05

Further lines, results first:

pIC50 (AHR [1])	pIC50 [2]	IC50 (AHR [3]) [M]	IC50 [2] [M]	IC50 (AHR [1]) [M]	Structure (SMILES)
< 4.70	7.02	4.47e-08			O=C(NCC(O)C(F)F)c1cc(-c2ccc(C(F)(F)F)cc2)nn(-c2cccc(F)c2)c1=O (single isomer, unassigned; (+)) [Example 328, (+)-N-(3,3-difluoro-2-hydroxypropyl)-2-(3-fluorophenyl)-3-oxo-6-[4-(trifluoromethyl)phenyl]-2,3-dihydropyridazine-4-carboxamide]
		4.87e-08	9.14e-08	> 2e-05	O=C(NCC(O)C(F)F)c1cc(-c2ccc(Cl)cc2)nn(-c2cccc(F)c2)c1=O (single isomer, unassigned; (-)) [Example 222, (−)-6-(4-Chlorophenyl)-N-(3,3-difluoro-2-hydroxypropyl)-2-(3-fluorophenyl)-3-oxo-2,3-dihydropyridazine-4-carboxamide]
< 4.70	6.41	1.09e-07			CC(CCO)NC(=O)c1cc(-c2ccc(C(F)(F)F)cc2)nn(-c2cccc(F)c2)c1=O (single isomer, unassigned; (-)) [Example 255, (−)-2-(3-Fluorophenyl)-N-(4-hydroxybutan-2-yl)-3-oxo-6-[4-(trifluoromethyl)phenyl]-2,3-dihydropyridazine-4-carboxamide]
	7.86	1.66e-08		> 2e-05	O=C(NCC(O)C(F)F)c1cc(-c2ccc(C(F)(F)F)cc2)nn(-c2cccc(F)c2)c1=O (single isomer, unassigned; (-)) [Example 327, (−)-N-(3,3-difluoro-2-hydroxypropyl)-2-(3-fluorophenyl)-3-oxo-6-[4-(trifluoromethyl)phenyl]-2,3-dihydropyridazine-4-carboxamide]
		2.8e-08	9.5e-08	> 2e-05	CC(C)(O)C(NC(=O)c1cc(-c2ccc(C(F)(F)F)cc2)nn(-c2cccc(F)c2)c1=O)C(F)(F)F (single isomer, unassigned; (-)) [Example 394, (−)-2-(3-fluorophenyl)-3-oxo-N-(1,1,1-trifluoro-3-hydroxy-3-methylbutan-2-yl)-6-[4-(trifluoromethyl)phenyl]-2,3-dihydropyridazine-4-carboxamide]
